In PubChem BioAssay (NCI):
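Test compounds were applied to cells in 96-well plates for 48 hours at 5 doses. At the GI50, growth is halved. The concentration for full growth arrest is given as TGI.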

Legend:
Experiment in all cases: growth of human tumour cells (NCI), 48 h
KM20L2 colon = tested on: KM20L2 colon
XF 498 CNS = tested on: XF 498 CNS
DMS 273 small cell lung = tested on: DMS 273 small cell lung
M19-MEL melanoma = tested on: M19-MEL melanoma
DMS 114 small cell lung = tested on: DMS 114 small cell lung
HOP-18 NSCLC = tested on: HOP-18 NSCLC

| SMILES | TGI (KM20L2 colon) [µM] | TGI (XF 498 CNS) [µM] | TGI (DMS 273 small cell lung) [µM] | TGI (M19-MEL melanoma) [µM] | TGI (DMS 114 small cell lung) [µM] | TGI (HOP-18 NSCLC) [µM] | GI50 (HOP-18 NSCLC) [µM] | GI50 (DMS 273 small cell lung) [µM] | GI50 (DMS 114 small cell lung) [µM] |
| --- | --- | --- | --- | --- | --- | --- | --- | --- | --- |
| O=C1C2=C(CCCCC2)C2CCCCC12O (centres undefined) | > 100 | > 100 | > 100 | > 100 | > 100 | – | – | – | – |
| Cc1ccc(S(=O)(=O)C2c3nc4ccccc4cc3-c3nc4ccccc4nc32)cc1 (centres undefined) | > 100 | > 100 | > 100 | > 100 | > 100 | – | – | – | – |
| N#Cc1ccc(Nc2cnc3ccc(N)cc3n2)cc1 | > 100 | > 100 | > 100 | > 100 | > 100 | – | – | – | – |
| CCCCCCCC(=O)OCC(C[As](=O)(O)O)OC(=O)CCCCCCC (centres undefined) | 30.7 | – | 27.4 | 32.4 | 30.6 | 29.3 | – | – | – |
| CC(=O)Nc1ccc(-c2nnc(SCC(=O)Nc3cccc([N+](=O)[O-])c3)o2)cc1 | 37.4 | – | 23.5 | 28.3 | 22.3 | 65.9 | – | – | – |
| C/C(=N\NC(=O)c1cccnc1)c1cccc(/C(C)=N/NC(=O)c2cccnc2)n1.CC(=O)[O-].CC(=O)[O-].[Zn+2] | > 100 | – | 98.1 | > 100 | 20.1 | > 26.9 | 2.55 | 2.15 | 0.949 |
| COC(=O)[C@@]12OC[C@]34C([C@@H](O)C1O)[C@@]1(C)CC(=O)C(O)=C(C)C1C[C@H]3OC(=O)[C@H](OC(=O)/C=C(/c1ccccc1)C(F)(F)F)[C@H]42 (some centres undefined) | 14 | 10.6 | 4.87 | 11 | 17 | > 25 | – | – | – |
